{"source": "PubChem BioAssay AID1996", "data": [{"conditions": "buffer; pH 7.4; 200.0 µM", "units": {"solubility kinetic": "µg/mL"}, "values": [{"smiles": "OC1C2CN3CN(C2)CC1(c1ccccc1)C3", "note": "(centres undefined)", "solubility kinetic": "> 34.5"}, {"smiles": "O=[N+]([O-])c1cc(C(F)(F)F)ccc1NCCc1ccncc1", "solubility kinetic": 1.6}, {"smiles": "O=C(CN1C(=O)NC2(CCCCCC2)C1=O)NCc1ccc(F)cc1", "solubility kinetic": "> 52.1"}, {"smiles": "Cc1cc(C)c(OCC(=O)Nc2nc3ccccc3[nH]2)c(C)c1", "solubility kinetic": 0.3}, {"smiles": "CCCc1cc(C(=O)Nc2ccc(C#N)cc2)no1", "solubility kinetic": 2.4}, {"smiles": "CN(c1ccccc1)S(=O)(=O)c1cccc2ccccc12", "solubility kinetic": 2.2}, {"smiles": "CCc1ccccc1NC(=O)COC(=O)c1c(C)nsc1NC", "solubility kinetic": 1.9}, {"smiles": "CCOc1ccccc1N1CCN(C(=O)CC(C)(C)C)CC1", "solubility kinetic": 45.1}, {"smiles": "Cn1c(=O)c(C(=O)c2ccc(S(C)(=O)=O)c(Cl)c2Cl)c(O)c2ccccc21", "solubility kinetic": "> 63.9"}, {"smiles": "COc1ccc(-c2cc(-c3ccccc3)c(C#N)c(SCC(=O)O)n2)cc1", "solubility kinetic": "> 56.5"}, {"smiles": "C=CCN=C1S/C(=C/c2cccc([N+](=O)[O-])c2)C(=O)N1CC=C", "solubility kinetic": 1.5}, {"smiles": "CCc1nc2ccc(Cc3ccc4nc(CC)[nH]c4c3)cc2[nH]1", "solubility kinetic": "> 45.7"}, {"smiles": "CCOC(=O)CNC(=O)CSc1nc(-c2cccc(C)c2)ns1", "solubility kinetic": 40.9}, {"smiles": "CC(Sc1nc2ccccc2[nH]1)C(=O)NC1CCCCC1C", "note": "(centres undefined)", "solubility kinetic": 14.5}, {"smiles": "COc1ccc(N(C(C)=O)c2nc3ccccc3[nH]2)cc1", "solubility kinetic": 38.2}, {"smiles": "COc1ccccc1OCC(=O)NCCCN1CCOCC1", "solubility kinetic": 36.1}, {"smiles": "CC(C)(C)N/C=C(\\C#N)S(=O)(=O)c1ccc(Br)cc1", "solubility kinetic": 7.7}, {"smiles": "Cc1nc(SCC(=O)Nc2ccc3[nH]c(=O)[nH]c3c2)nc(C)c1C", "solubility kinetic": 15}, {"smiles": "CCn1cc(CCCC(=O)NCc2ccc(OC)cc2)c2ccccc21", "solubility kinetic": 10.5}, {"smiles": "O=C(Nc1nccs1)c1ccc(CSc2ccccc2)o1", "solubility kinetic": 1.6}, {"smiles": "CCOP(=O)(OCC)C(Nc1ccccc1)c1ccco1", "note": "(centres undefined)", "solubility kinetic": "> 46.4"}, {"smiles": "O=C1CCCc2ccccc2N1Cc1cccc(F)c1", "solubility kinetic": 36.4}, {"smiles": "O=[N+]([O-])c1ccc(Oc2cccc(C(F)(F)F)c2)nc1", "solubility kinetic": 3.5}, {"smiles": "Cc1nn(CC(=O)NC2CCS(=O)(=O)C2)c(C)c1[N+](=O)[O-]", "note": "(centres undefined)", "solubility kinetic": "> 47.4"}, {"smiles": "Cc1ccc(C)c(S(=O)(=O)c2c(C)cc(C)nc2Cl)c1", "solubility kinetic": 27}, {"smiles": "Clc1ccc(C(c2ccccc2)N2CCN(c3ccccn3)CC2)cc1", "note": "(centres undefined)", "solubility kinetic": 0.9}, {"smiles": "Clc1ccc(OCC#CCN2CCCC2)cc1.O=C(O)C(=O)O", "solubility kinetic": 45.1}, {"smiles": "Cc1ccc(CN2CC(C(=O)Nc3ccncc3)CC2=O)cc1", "note": "(centres undefined)", "solubility kinetic": "> 46.4"}, {"smiles": "CC(C)(C)NS(=O)(=O)c1ccc(NC(=O)C2CCCCC2)cc1", "solubility kinetic": 11.5}, {"smiles": "Oc1ccc(/C=N/N2CCCCC2)cc1O", "solubility kinetic": "> 33"}, {"smiles": "CCCCC(CC)CNC(=O)Cn1c(=O)[nH]c2ccsc2c1=O", "note": "(centres undefined)", "solubility kinetic": 33.5}, {"smiles": "Nc1nc2ncc(C(=O)c3cc(F)ccc3O)cc2s1", "solubility kinetic": 7}, {"smiles": "CC1CCN(C(=O)CN(c2cccc(F)c2)S(C)(=O)=O)CC1", "solubility kinetic": "> 49.3"}, {"smiles": "NC(=O)c1ccccc1OCC(=O)N1CCCc2ccccc21", "solubility kinetic": "> 46.6"}, {"smiles": "O=C(O)/C=C\\C(=O)Nc1ccccc1N1CCN(c2ccccc2)CC1", "solubility kinetic": 52}, {"smiles": "CC(NC(=O)C1CCCC1)c1ccc(Br)cc1", "note": "(centres undefined)", "solubility kinetic": 33.4}, {"smiles": "CCOc1ccc(S(=O)(=O)NCCC(=O)N2CCC(Cc3ccccc3)CC2)cc1", "solubility kinetic": 12.8}, {"smiles": "Cc1ccc(OCC(=O)NCCNC(=O)c2ccncc2)cc1C", "solubility kinetic": "> 49.1"}, {"smiles": "O=C(O)CC(CN1C(=O)c2ccccc2C1=O)c1ccccc1", "note": "(centres undefined)", "solubility kinetic": "> 46.4"}, {"smiles": "O=[N+]([O-])c1ccc(Nc2ccccc2)c2nonc12", "solubility kinetic": "> 38.4"}, {"smiles": "O=S(=O)(NCc1ccco1)c1ccc2ccccc2c1", "solubility kinetic": 11.3}, {"smiles": "COc1ccc(/C=C(\\C#N)C(=O)NC(C)c2ccccc2)cc1O", "note": "(centres undefined)", "solubility kinetic": 18.3}, {"smiles": "COc1ccc(NC(=O)C2C(c3ccccc3)C2(Cl)Cl)cc1", "note": "(centres undefined)", "solubility kinetic": "< 0.7"}, {"smiles": "CC12CCC(C(=O)Nc3nc4ccccc4s3)(OC1=O)C2(C)C", "note": "(centres undefined)", "solubility kinetic": 34.7}, {"smiles": "Nc1cc(=O)[nH]c(SCC(=O)N2CCCC2)n1", "solubility kinetic": "> 38.1"}, {"smiles": "Cn1cc(Cl)cc(C(=O)Nc2ccccc2)c1=O", "solubility kinetic": 2}, {"smiles": "O=C(NC12CC3CC(CC(C3)C1)C2)c1cc([N+](=O)[O-])ccc1Cl", "solubility kinetic": 0.6}, {"smiles": "CCCCCCCn1c(NC(=O)CC)nc2ccccc21", "solubility kinetic": 13.8}, {"smiles": "COc1ccc(C(O)Cn2ccsc2=NC(C)=O)cc1", "note": "(centres undefined)", "solubility kinetic": 41.3}, {"smiles": "O=C(CN1C(=O)c2ccccc2C1=O)Oc1ccc(Cl)cc1", "solubility kinetic": 28}, {"smiles": "COc1ccc2nc(Nc3nc(-c4ccncc4)cs3)sc2c1", "solubility kinetic": 0.8}, {"smiles": "Cc1ccc(NS(=O)(=O)c2c(F)cc(F)c(Cl)c2F)cc1S(=O)(=O)N1CCOCC1", "solubility kinetic": "> 72.7"}, {"smiles": "NC(=O)C1CCCN(Cc2ccc3ccccc3c2)C1", "note": "(centres undefined)", "solubility kinetic": 29.2}, {"smiles": "O=C(c1cccs1)N1CCN(c2cccc(Cl)c2)CC1", "solubility kinetic": 26.3}, {"smiles": "O=C(O)c1ccc(OCC(F)(F)F)nc1", "solubility kinetic": "> 33.2"}, {"smiles": "COc1ccc2c(c1)c(C)cc[n+]2Cc1ccccc1.[Cl-]", "solubility kinetic": 31.9}, {"smiles": "CCc1ccc(OCC(=O)O/N=C(\\N)c2ccncc2)cc1", "solubility kinetic": 7.1}, {"smiles": "Cl.O=C(NCCN1CCCC1)C(c1ccccc1)c1ccccc1", "solubility kinetic": 48.9}, {"smiles": "O=S(=O)(NC1CCCCCC1)c1cccc(Cl)c1", "solubility kinetic": 40.6}]}]}
